Laboratory results taken from PMC10482825 (Scientific Reports, 2023).
Converted amounts (≈) assume the structure as drawn. Where a SMILES comes first, the peptide text is derived from it.

Key:
HEK-293 = assay: MTT cytotoxicity on normal cells; format: cell-based, human; conditions: 25 µM (highest tested concentration), 24 h, serum-free medium
Protocol: (§1) The used mammalian cell lines in our study were colorectal adenocarcinoma (Caco2, ATCC-HTB-37), colorectal carcinoma (HCT 116, ATCC-CCL-247), lung carcinoma (A549, ATCC- CCL-185), cervical cancer cells (HeLa, ATCC-CCL-2), neuroblastoma (SH-SY5Y, ATCC- CRL-2266), rhabdomyosarcoma (RD, ATCC- CCL-136) and human embryonic kidney cells (HEK 293, ATCC- CRL-1573). All the cells were maintained into Dulbecco’s Modified Eagle’s Medium (DMEM) supplemented with 10% heat-inactivated fetal bovine serum, 2 mM L-Glutamine, 100 U/ml penicillin–streptomycin (Pen/Strep) at 37 °C in 5% CO2 humidified incubator.
(§2) First, the cytotoxic effect of 24 h serum deprivation on all the selected cell lines was evaluated by MTT assay, following standard protocols. Briefly, cells were seeded and maintained at 37 °C and 5% CO2 in 24-well plates until they reached 75–80% confluency (zero time). Following washing twice with 1X PBS, cells were incubated in a serum-free medium for 24 h, under the same incubation conditions. The cell viability percentages were calculated and compared to zero time as 100% viability to nullify any possible effects of serum deprivation. Thence, the cell viability percentage of each cell line in response to 24 h treatment with different concentrations of each cryptide in serum-free medium was calculated. […] All the measured cell viability percentages were normalised against the corresponding negative controls.

[1] = format: cell-based; conditions: 24 h, serum-free medium, MTT, 37 °C, 5% CO2; mean ± SD; read-out: IC50 (µM) A459
Protocol: as §1, §2

SH-SY5Y = format: cell-based; conditions: 24 h, serum-free medium, MTT, 37 °C, 5% CO2; mean ± SD
Protocol: as §1, §2

RD = format: cell-based; conditions: 24 h, serum-free medium, MTT, 37 °C, 5% CO2; mean ± SD
Protocol: as §1, §2

S. enterica [2] = format: cell-based, Salmonella enterica (ATCC, 14028); conditions: 20 µl of wells without growth on agar, 18 h, 37 °C
P. aeruginosa [3] = format: cell-based, Pseudomonas aeruginosa (ATCC, 10145); conditions: 20 µl of wells without growth on agar, 18 h, 37 °C
C. albicans [4] = format: cell-based, Candida albicans (TIMM, 1768); conditions: micro-broth dilution, 3 h peptide treatment then MHB 18 h, 37 °C, OD 600 nm
Description: (§3) The microbial strains used in this study were Bacillus subtilis (ATCC, 11774), Candida albicans (TIMM, 1768), Enterococcus faecalis (ATCC, 33186), Escherichia coli (ATCC, 11775), Klebsiella pneumoniae (ATCC, 13883), Methicillin-resistant Staphylococcus aureus (ATCC, BAA-41), Pseudomonas aeruginosa (ATCC, 10145), Salmonella enterica (ATCC, 14028), Serratia marcescens (ATCC, 13880), Staphylococcus aureus (ATCC, 25923) and Vibrio parahaemolyticus (ATCC, 17802). All microbial strains were cultivated overnight at 37 °C and 200 rpm, then subcultured and incubated for 3 h under the same incubation conditions to obtain the mid-logarithmic growth phase. The cultivated cells were washed twice with 10 mM Tris–HCl containing 5 mM D-glucose at pH 7.4 and suspended in the same buffer to be used in different assays, as previously described.
(§4) As a conclusive quantitative assessment, broth microtiter assay was used to determine the MIC values of each cryptide against B. subtilis, MRSA, S. enterica, P. aeruginosa, V. parahaemolyticus and C. albicans by following the guidelines of the Clinical and Laboratory Standards Institute (CLSI)[67], with slight modifications. Eighty microliters of 5 × 10^4 CFU/ml of each pathogen were dispensed into a 96-well polypropylene microtiter plate. The wells were then treated with 20 µl of serially diluted cryptides for 3 h at 37 °C. Gentamicin was used for positive controls at 0.2 mg/ml while an equivalent volume of acidified water was used for negative controls. The plates were then topped up with a final concentration of 1 × Mueller Hinton Broth (MHB) and incubated for 18 h under the same incubation conditions. MIC was detected as the lowest concentration of each cryptide that prevents the optically detectable microbial growth at OD = 600 nm.

Caco-2 = format: cell-based, human; conditions: 24 h, serum-free medium, MTT, 37 °C, 5% CO2; mean ± SD
Protocol: as §1, §2

HeLa = format: cell-based, human; conditions: 24 h, serum-free medium, MTT, 37 °C, 5% CO2; mean ± SD
Protocol: as §1, §2

P. aeruginosa [5] = format: cell-based, Pseudomonas aeruginosa (ATCC, 10145); conditions: micro-broth dilution, 3 h peptide treatment then MHB 18 h, 37 °C, OD 600 nm
Description: as §3, §4

[6] = system: S. enterica mature biofilm; assay: Antibiofilm microtiter plate assay (mature biofilm, crystal violet); format: cell-based, Salmonella enterica (ATCC, 14028); conditions: tested 12.5-200 µM
Protocol: The antibiofilm activities of the selected cryptides against S. enterica and MRSA mature biofilms were examined by microtiter plate assay as previously described, with slight modification. During the mid-logarithmic phase, S. enterica and MRSA were suspended at the density of 1.7 × 10^8 CFU/ml in MHB. Then 100 µl of each bacterial suspension was dispensed into a vinyl 96 U-shaped-well plate and incubated overnight at 37 °C. The mature biofilms were washed with 10 mM Tris–HCl containing 5 mM D-glucose at pH 7.4 and treated for 8 h with 100 µl of two-fold serially diluted cryptides, under the same incubation conditions. A sterile MHB medium was used as the positive control while an equivalent volume of acidified water was used to treat the negative controls. The treated biofilms were washed twice with the same washing buffer and stained with 0.1% crystal violet for 15 min followed by rinsing with sterile distilled water twice and then dried for 30 min at 37 °C. The stain was dissolved with 33% acetic acid and transferred to an optically clear 96-well flat bottom plate which was then measured at 600 nm.
Table S.4 Antibiofilm activities of the selected Cryptides against S. enterica and MRSA. Microbial cells were suspended at 1.7 X 10^8 CFU/ml density, during the mid-logarithmic phase in MHB. Then, 96 U-shaped -well plates were inoculated with 100 µl of microbial suspension and incubated for 48 h at 37 °C. The formed biofilms were washed with 10 mM Tris-HCl and treated with 100 µl of different concentrations of each peptide for 24 h. The treated biomasses were washed and fixed with methanol for 15 min at -20 °C before staining with 0.1 % crystal violet. The stained biofilms were dissolved in 100 µl of 33 % acetic acid and the quantities of crystal violet stains were determined by measuring absorbance at 600 nm as an indicator of the remaining biomass after treatment. Untreated cells were used as negative control [indicating 100 % biofilm integrity] while the sterile medium was used as a positive control [indicating 0 % biofilm integrity].
S. enterica MRSA S. enterica MRSA S. enterica MRSA S. enterica MRSA S. enterica MRSA

C. albicans [7] = format: cell-based, Candida albicans (TIMM, 1768); conditions: 20 µl of wells without growth on Sabouraud 4% Dextrose Agar, 18 h, 37 °C
MRSA [8] = format: cell-based, Methicillin-resistant Staphylococcus aureus (ATCC, BAA-41); conditions: 20 µl of wells without growth on agar, 18 h, 37 °C
[9] = system: the different tested pathogens; format: cell-based; conditions: span over tested pathogens, undetected values disregarded
Description: as §3, §4

B. subtilis [10] = format: cell-based, Bacillus subtilis (ATCC, 11774); conditions: micro-broth dilution, 3 h peptide treatment then MHB 18 h, 37 °C, OD 600 nm
Description: as §3, §4

B. subtilis [11] = format: cell-based, Bacillus subtilis (ATCC, 11774); conditions: 20 µl of wells without growth on agar, 18 h, 37 °C
S. enterica [12] = format: cell-based, Salmonella enterica (ATCC, 14028); conditions: micro-broth dilution, 3 h peptide treatment then MHB 18 h, 37 °C, OD 600 nm
Description: as §3, §4

MRSA [13] = format: cell-based, Methicillin-resistant Staphylococcus aureus (ATCC, BAA-41); conditions: micro-broth dilution, 3 h peptide treatment then MHB 18 h, 37 °C, OD 600 nm
Description: as §3, §4

HCT 116 = format: cell-based, human; conditions: 24 h, serum-free medium, MTT, 37 °C, 5% CO2; mean ± SD
Protocol: as §1, §2

human RBCs = assay: Hemolytic assay; format: cell-based; conditions: 2% RBCs in PBS, 2 h, 37 °C, supernatant at 450 nm, 0.1% TritonX-100 = maximum; highest tested concentration 100 µM
Protocol: All methods were carried out in accordance with the Declaration of Helsinki, and the Research Ethics Committee approved all experimental protocols at Sunway University (approval no. PGSUREC2020/005). A human blood sample was collected from a healthy person for this assay upon obtaining informed consent. The fresh blood sample was centrifuged at 3700 g for 5 min at RT. The supernatant (serum) was removed and red blood cells (RBCs) were washed three times with 1X PBS and diluted to a final concentration of 2% (PBS—137 mM NaCl, 2.7 mM KCl, 10 mM Na2HPO4, 1.76 mM KH2PO4). Cells were stored at 4 °C, and used within 5 h.
The hemolytic activities of the identified cryptides were evaluated as previously described. The prepared RBCs were treated with different peptide concentrations for 2 h at 37 °C. The treated RBCs were centrifuged, under the same centrifugation conditions, and the supernatants were transferred to a 96-well plate and measured at 450 nm.

SMILES	Cell death of HEK-293 (HEK-293)	IC50 [1] [µM]	IC50 (SH-SY5Y) [µM]	IC50 (RD) [µM]	MBC (µM) S. enterica (S. enterica [2]) [µM]	MBC (µM) P. aeruginosa (P. aeruginosa [3]) [µM]	MIC (µM) C. albicans (C. albicans [4]) [µM]	IC50 (Caco-2) [µM]	IC50 (HeLa) [µM]	MIC (µM) P. aeruginosa (P. aeruginosa [5]) [µM]	Minimal biofilm eradication concentration (MBEC) S. enterica [6] [µM]	MFC (µM) C. albicans (C. albicans [7]) [µM]	MBC (µM) MRSA (MRSA [8]) [µM]	MIC (µM) B. subtilis (B. subtilis [10]) [µM]	MBC (µM) B. subtilis (B. subtilis [11]) [µM]	MIC (µM) S. enterica (S. enterica [12]) [µM]	MIC (µM) MRSA (MRSA [13]) [µM]	further results
CC(C)[C@H](NC(=O)[C@H](CO)NC(=O)[C@H](Cc1ccccc1)NC(=O)[C@H](CC(N)=O)NC(=O)[C@H](CS)NC(=O)[C@H](Cc1ccc(O)cc1)NC(=O)[C@H](Cc1c[nH]cn1)NC(=O)CN)C(=O)N[C@H](C(=O)N1CCC[C@H]1C(=O)N[C@@H](CCCCN)C(=O)N[C@@H](Cc1ccccc1)C(=O)N[C@@H](CCCCN)C(=O)N[C@@H](CCCNC(=N)N)C(=O)N[C@@H](Cc1c[nH]c2ccccc12)C(=O)O)[C@@H](C)O [AD8] (H-GHYCNFSVTPKFKRW-OH)	less than 10%	7.3 ± 0.5	23.3 ± 0.7	27.2 ± 0.4	0.78 (≈ 1.46 µg/mL)	50 (≈ 93.5 µg/mL)	6.25 (≈ 11.7 µg/mL)	4.4 ± 0.5	42.6 ± 0.3	25 (≈ 46.8 µg/mL)	200	6.25 (≈ 11.7 µg/mL)	12.5 (≈ 23.4 µg/mL)	0.78 (≈ 1.46 µg/mL)	0.78 (≈ 1.46 µg/mL)	0.78 (≈ 1.46 µg/mL)	3.12 (≈ 5.83 µg/mL)	MBC values, range against the different tested pathogens [9]: 0.78 ~ 50 µM; MIC values, range against the different tested pathogens [9]: 0.78 ~ 25 µM
CC(C)C[C@H](NC(=O)[C@H](C)NC(=O)[C@H](Cc1ccccc1)NC(=O)[C@@H](N)Cc1ccccc1)C(=O)N[C@@H](CCC(N)=O)C(=O)N[C@@H](CS)C(=O)N[C@@H](C)C(=O)N[C@@H](C)C(=O)N[C@@H](CCCCN)C(=O)N[C@H](C(=O)N[C@@H](CCCNC(=N)N)C(=O)N[C@H](C(=O)N[C@@H](CCCNC(=N)N)C(=O)N[C@@H](CCCNC(=N)N)C(=O)N[C@H](C(=O)O)C(C)C)[C@@H](C)O)[C@@H](C)O [AD12] (H-FFALQCAAKTRTRRV-OH)	less than 10%	9.4 ± 1		159	0.78 (≈ 1.38 µg/mL)	25 (≈ 44.2 µg/mL)	12.5 (≈ 22.1 µg/mL)	4.35	8.5 ± 0.5	12.5 (≈ 22.1 µg/mL)	200	12.5 (≈ 22.1 µg/mL)	25 (≈ 44.2 µg/mL)	0.78 (≈ 1.38 µg/mL)	0.78 (≈ 1.38 µg/mL)	0.78 (≈ 1.38 µg/mL)	6.25 (≈ 11.1 µg/mL)	
N.N.[Cl][Pt][Cl] [Cisplatin, reference compound]		15.3 ± 0.6	54.4 ± 0.8	74 ± 1.2					63.6 ± 0.4									IC50 (µM) HCT 116 (HCT 116): resistant; Hemolysis of human RBCs at 100 µM (human RBCs): less than 10%
